According to ChEMBL document CHEMBL1201862, “PubChem BioAssay data set” (2004):
Active and inactive are the calls of the source.

What was measured:
[1] = target: T1, CAAX prenyl protease 2 (Saccharomyces cerevisiae S288c, UniProt Q03530); format: biochemical
T1 sequence (Q03530 whole entry): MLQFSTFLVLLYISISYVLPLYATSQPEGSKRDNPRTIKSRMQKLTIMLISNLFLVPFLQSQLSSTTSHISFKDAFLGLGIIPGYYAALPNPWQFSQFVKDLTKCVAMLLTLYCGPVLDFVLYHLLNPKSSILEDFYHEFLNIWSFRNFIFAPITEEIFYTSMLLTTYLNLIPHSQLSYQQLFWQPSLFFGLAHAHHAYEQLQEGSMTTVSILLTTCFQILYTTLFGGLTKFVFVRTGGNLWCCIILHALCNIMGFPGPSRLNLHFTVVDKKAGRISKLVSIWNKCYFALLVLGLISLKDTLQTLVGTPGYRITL

[2] = system: Streptococcus sp. 'group A'; assay: growth inhibition of control SK(-) GAS strain, dose response, counter-screen for streptokinase expression inhibitor project, luminescence, kanamycin, BacTiterGlo, confirmation (AID 1900); format: functional, organism-based
[3] = target: T2, Streptokinase A (Streptococcus pyogenes serotype M1, UniProt P10520); assay: S. pyogenes streptokinase expression inhibitors, potency, dose response, plasminogen activation absorbance, OD405 (AID 1914); format: functional, Streptococcus pyogenes M1 GAS;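 note: secreted streptokinase activity via plasminogen activation per viability signal from cell pellet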
T2 sequence (P10520 whole entry): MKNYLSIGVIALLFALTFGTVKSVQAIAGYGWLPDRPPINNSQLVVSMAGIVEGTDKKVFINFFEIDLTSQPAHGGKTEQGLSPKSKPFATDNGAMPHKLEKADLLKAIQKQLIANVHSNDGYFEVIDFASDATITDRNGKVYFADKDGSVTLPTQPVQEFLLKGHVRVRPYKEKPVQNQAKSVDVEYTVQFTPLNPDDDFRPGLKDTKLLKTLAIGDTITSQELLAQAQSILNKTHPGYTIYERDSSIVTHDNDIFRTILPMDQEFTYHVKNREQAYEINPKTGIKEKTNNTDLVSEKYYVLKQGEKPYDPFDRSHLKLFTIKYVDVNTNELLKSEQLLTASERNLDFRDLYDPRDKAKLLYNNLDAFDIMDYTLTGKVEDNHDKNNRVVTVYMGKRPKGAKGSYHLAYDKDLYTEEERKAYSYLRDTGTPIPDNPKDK

[4] = system: Streptococcus; assay: Group A Streptococcus viability loss, dose response, counter-screen for streptokinase expression inhibitor project, luminescence, BacTiterGlo (AID 1915); format: functional, organism-based;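 note: potency for reduction of bacterial viability or growth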
[5] = target: Alkaline phosphatase, placental type (Homo sapiens, UniProt P05187); assay: PLAP enzyme inhibitors, confirmation, biochemical, luminescence (AID 1512); format: functional
Sequence of Alkaline phosphatase, placental type (P05187 whole entry): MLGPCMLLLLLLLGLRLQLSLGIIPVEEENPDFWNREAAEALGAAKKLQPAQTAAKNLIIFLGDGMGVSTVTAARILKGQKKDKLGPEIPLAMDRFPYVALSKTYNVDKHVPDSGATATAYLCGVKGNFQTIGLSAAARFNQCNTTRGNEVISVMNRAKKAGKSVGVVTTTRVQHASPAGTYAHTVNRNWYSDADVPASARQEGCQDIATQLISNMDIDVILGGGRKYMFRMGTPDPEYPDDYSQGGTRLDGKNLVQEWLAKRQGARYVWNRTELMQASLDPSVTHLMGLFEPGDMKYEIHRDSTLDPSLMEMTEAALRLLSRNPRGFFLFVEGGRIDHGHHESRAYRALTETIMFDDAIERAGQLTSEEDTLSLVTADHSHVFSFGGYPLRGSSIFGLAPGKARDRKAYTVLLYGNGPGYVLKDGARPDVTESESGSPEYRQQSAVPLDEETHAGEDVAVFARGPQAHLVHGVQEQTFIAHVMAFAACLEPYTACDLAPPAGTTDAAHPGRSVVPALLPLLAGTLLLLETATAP

[6] = target: T3, Alkaline phosphatase, tissue-nonspecific isozyme (Homo sapiens, UniProt P05186); assay: human TNAP enzyme inhibitors, SAR follow-up, biochemical, luminescent, dose response (AID 1056)
T3 sequence (P05186 whole entry): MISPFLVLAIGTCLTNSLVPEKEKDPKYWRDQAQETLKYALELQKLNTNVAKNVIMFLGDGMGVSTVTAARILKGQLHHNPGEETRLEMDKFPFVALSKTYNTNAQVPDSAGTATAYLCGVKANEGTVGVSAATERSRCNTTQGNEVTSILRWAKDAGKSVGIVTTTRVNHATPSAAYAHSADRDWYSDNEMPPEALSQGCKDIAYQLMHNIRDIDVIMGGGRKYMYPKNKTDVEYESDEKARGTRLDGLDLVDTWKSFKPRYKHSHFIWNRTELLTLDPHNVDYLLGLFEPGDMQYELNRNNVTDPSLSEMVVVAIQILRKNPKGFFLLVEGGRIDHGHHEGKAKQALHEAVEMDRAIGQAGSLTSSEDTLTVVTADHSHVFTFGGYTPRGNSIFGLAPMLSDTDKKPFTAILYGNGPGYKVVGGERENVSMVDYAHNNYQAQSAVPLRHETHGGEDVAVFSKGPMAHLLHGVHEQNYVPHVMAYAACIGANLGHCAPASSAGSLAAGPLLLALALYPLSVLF

[7] = system: T-cell; assay: inhibitors of CD8+ T cell–vesicle binding, dose response, mouse 2C CD8+ T cells, flow cytometry (AID 485284); format: functional
[8] = system: HEK293; assay: cells; format: functional, cell-based; details: Homo sapiens
[9] = system: HEK293; assay: NOD1 signaling inhibitors, primary screen, cell-based, luminescence, uHTS (AID 1578); format: functional; details: Homo sapiens
[10] = target: T4, Nucleotide-binding oligomerization domain-containing protein 1 (Homo sapiens, UniProt Q9Y239); assay: NOD1 signaling inhibitors, SAR follow-up, revised (AID 2333); format: functional
T4 sequence (Q9Y239 whole entry): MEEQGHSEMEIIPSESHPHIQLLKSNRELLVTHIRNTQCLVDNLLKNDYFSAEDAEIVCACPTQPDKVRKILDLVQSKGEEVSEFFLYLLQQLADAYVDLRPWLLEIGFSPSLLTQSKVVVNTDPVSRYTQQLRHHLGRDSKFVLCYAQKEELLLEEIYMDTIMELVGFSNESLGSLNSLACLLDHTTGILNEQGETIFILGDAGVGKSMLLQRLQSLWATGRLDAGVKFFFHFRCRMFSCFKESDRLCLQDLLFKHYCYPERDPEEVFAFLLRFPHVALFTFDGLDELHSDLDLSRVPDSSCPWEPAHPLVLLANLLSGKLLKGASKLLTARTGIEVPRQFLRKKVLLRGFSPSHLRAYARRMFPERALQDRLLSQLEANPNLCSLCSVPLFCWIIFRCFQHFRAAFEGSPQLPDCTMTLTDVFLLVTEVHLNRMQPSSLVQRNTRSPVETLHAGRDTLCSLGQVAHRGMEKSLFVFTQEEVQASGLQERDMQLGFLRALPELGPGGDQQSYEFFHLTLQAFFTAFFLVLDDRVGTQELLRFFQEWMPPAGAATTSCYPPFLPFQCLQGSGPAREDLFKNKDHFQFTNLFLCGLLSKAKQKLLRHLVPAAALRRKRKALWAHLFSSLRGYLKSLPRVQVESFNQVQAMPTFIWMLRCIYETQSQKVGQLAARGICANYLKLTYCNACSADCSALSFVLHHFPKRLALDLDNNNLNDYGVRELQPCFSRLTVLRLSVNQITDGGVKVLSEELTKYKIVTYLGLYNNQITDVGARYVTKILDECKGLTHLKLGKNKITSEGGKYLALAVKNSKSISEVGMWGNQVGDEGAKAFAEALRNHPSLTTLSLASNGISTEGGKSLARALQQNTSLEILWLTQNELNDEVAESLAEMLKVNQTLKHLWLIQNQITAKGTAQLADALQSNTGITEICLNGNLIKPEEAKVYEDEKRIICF

[11] = target: Tumor necrosis factor (Homo sapiens, UniProt P01375); assay: TNFa-triggered NF-kB activation inhibitors, SAR follow-up, cell-based, revised (AID 2337); format: functional
Sequence of Tumor necrosis factor (P01375 whole entry): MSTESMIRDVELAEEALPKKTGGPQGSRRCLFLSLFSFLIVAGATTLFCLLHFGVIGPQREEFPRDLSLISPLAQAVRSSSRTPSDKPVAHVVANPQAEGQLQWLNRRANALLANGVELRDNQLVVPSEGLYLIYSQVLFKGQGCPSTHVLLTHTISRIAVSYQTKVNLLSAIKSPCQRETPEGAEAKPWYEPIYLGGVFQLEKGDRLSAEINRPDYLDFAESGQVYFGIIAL

[12] = system: HEK293; assay: cells; format: functional, cell-based; details: Homo sapiens; remark: listed apart in the source
[13] = system: HEK293; assay: NOD2 signaling inhibitors in MDP-stimulated cells, cell-based, uHTS, luminescence (AID 2001); format: functional; details: Homo sapiens
[14] = system: HEK293; assay: cells; details: Homo sapiens
[15] = target: T5, DNA dC->dU-editing enzyme APOBEC-3G (Homo sapiens, UniProt Q9HC16); assay: Dose Response confirmation of small molecule APOBEC3G DNA Deaminase Inhibitors via a fluorescence-based single-stranded DNA deaminase assay. [Related pubchem assays (depositor defined):AID493012, AID493028]; format: functional
T5 sequence (Q9HC16 whole entry): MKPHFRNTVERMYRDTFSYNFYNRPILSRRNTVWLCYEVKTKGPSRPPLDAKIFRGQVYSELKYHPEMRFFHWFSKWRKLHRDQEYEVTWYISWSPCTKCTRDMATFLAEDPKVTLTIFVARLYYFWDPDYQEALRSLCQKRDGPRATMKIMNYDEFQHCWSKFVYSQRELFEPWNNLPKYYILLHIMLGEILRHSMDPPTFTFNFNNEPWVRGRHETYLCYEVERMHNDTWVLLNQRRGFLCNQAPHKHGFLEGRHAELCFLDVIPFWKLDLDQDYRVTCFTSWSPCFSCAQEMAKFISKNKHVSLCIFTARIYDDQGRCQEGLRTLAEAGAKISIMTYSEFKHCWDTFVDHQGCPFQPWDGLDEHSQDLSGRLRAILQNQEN

[16] = target: T6, DNA repair protein RAD52 homolog (Homo sapiens, UniProt P43351); format: functional, biochemical
T6 sequence (P43351 whole entry): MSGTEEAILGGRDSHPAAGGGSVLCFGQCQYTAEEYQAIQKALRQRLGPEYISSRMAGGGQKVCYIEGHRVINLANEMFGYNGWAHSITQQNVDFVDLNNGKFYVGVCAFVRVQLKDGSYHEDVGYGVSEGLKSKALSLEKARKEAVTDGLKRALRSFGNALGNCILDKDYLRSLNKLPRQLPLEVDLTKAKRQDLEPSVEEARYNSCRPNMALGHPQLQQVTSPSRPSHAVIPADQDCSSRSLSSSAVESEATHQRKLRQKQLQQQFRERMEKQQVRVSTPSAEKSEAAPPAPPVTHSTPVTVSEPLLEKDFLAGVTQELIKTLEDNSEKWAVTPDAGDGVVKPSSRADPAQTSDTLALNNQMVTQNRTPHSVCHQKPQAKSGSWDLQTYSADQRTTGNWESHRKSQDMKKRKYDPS

[17] = target: DNA dC->dU-editing enzyme APOBEC-3A (Homo sapiens, UniProt P31941); assay: Dose Response confirmation of small molecule APOBEC3A DNA Deaminase Inhibitors via a fluorescence-based single-stranded DNA deaminase assay. [Related pubchem assays (depositor defined):AID493011, AID493024]; format: functional
Sequence of DNA dC->dU-editing enzyme APOBEC-3A (P31941 whole entry): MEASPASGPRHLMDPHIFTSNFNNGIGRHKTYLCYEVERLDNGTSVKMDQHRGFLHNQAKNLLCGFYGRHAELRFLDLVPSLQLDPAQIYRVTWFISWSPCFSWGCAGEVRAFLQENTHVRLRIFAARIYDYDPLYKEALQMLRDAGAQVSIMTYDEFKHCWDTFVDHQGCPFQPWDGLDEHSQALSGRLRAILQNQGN

[18] = target: T5, DNA dC->dU-editing enzyme APOBEC-3G; format: functional
[19] = target: T7, Caspase-6 (Homo sapiens, UniProt P55212); assay: human caspase-6 inhibitors, dose response, biochemical, VEID-R110 fluorescence, cherry-pick (AID 720632)
T7 sequence (P55212 whole entry): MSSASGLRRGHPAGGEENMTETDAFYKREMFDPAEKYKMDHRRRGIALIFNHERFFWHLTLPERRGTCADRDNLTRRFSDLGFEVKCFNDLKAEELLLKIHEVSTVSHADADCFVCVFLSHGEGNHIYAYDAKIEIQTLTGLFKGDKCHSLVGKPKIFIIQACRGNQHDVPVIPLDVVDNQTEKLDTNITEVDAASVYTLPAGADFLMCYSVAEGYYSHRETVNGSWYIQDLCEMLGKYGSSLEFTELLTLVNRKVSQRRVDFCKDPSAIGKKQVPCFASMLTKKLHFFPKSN

[20] = target: T8, Hexokinase (Trypanosoma brucei, UniProt Q38C41); assay: Confirmation assay for inhibitors of Trypanosoma brucei hexokinase 1-Analogue-first series. [Related pubchem assays (depositor defined):AID1430, AID1632, AID2516, AID2560, AID2579, AID2600, AID449725, AID492951]; format: functional
T8 sequence (Q38C41 whole entry): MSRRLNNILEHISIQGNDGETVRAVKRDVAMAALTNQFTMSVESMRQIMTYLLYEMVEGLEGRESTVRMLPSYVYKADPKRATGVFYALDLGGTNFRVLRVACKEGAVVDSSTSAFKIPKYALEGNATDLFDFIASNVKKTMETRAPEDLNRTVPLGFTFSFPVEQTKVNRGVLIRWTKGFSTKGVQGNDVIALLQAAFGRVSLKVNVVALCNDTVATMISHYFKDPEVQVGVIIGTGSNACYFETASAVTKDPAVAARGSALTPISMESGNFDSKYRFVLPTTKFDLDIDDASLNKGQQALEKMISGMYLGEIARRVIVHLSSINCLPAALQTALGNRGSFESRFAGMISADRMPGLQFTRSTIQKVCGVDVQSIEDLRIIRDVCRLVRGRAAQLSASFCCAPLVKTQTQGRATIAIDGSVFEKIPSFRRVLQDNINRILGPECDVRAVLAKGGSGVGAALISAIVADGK

SMILES: Cc1cc(Cl)c2oc(C(=O)N3CCN(C(=O)c4ccco4)CC3)c(C)c2c1
- AC50 [1]: 21.7 µM (active)
- EC50 [2]: 3.4 µM (active)
- EC50 [3]: > 150 µM (not active)
- EC50 [4]: 24.7 µM (active)

SMILES: CCOc1ccc(N(Cc2ccc(OC)cc2)C(=O)c2ccco2)cc1
- AC50 [1]: 4.23 µM (active)

SMILES: O=C1Nc2ccccc2/C1=C\NCCc1ccc(O)c(O)c1
- IC50 [5]: 0.374 µM (active)
- IC50 [6]: 2.54 µM (active)

SMILES: COCCCN1CCc2nc(S)nc(O)c2C1
- EC50 [7]: 0.594 µM (active)

SMILES: Oc1nc(/C=C/c2ccccc2C(F)(F)F)cc(C(F)(F)F)n1
- IC50 [8]: > 20 µM (inactive)
- EC50 [9]: 9.79 µM (active)
- IC50 [10]: 3.82 µM (active)
- IC50 [11]: 11.3 µM (active)
- IC50 [12]: > 20 µM (inactive)
- IC50 [13]: 13.3 µM (inactive)
- IC50 [14]: > 20 µM (inactive)

SMILES: CCN(CC)CCn1c2ccccc2c2nnc(S)nc21
- IC50 [15]: 19.5 µM (active)
- AC50 [16]: 5.41 µM (active)

SMILES: O=C(O)c1ccc2c3c(cccc13)C(=O)N(c1ccccc1)C2=O
- IC50 [17]: 14 µM (active)
- IC50 [18]: 37.5 µM (active)
- AC50 [19]: 11.9 µM (active)

SMILES: Cc1ccc(N2CC(C(=O)NC3=NCCS3)CC2=O)cc1 (stereo not given)
- EC50 [7]: 22.1 µM (active)

SMILES: COc1ccc(C(=O)N(C)c2cc(Cl)ccc2C(=O)O)cc1
- IC50 [20]: > 25 µM (inactive)

SMILES: COc1ccc(C(=O)Nc2cnccc2C(=O)O)cc1
- IC50 [20]: > 25 µM (inactive)

SMILES: CCN1C(NCCCOC(C)C)=N[C@@H](c2ccccc2)[C@H](C(=O)OC)[C@H]1C
- IC50 [17]: 3.99 µM (active)
- IC50 [18]: 7.19 µM (active)

SMILES: Cc1nc2nc(C)n(-c3ccccc3)c2s1
- IC50 [17]: 17.7 µM (active)
- IC50 [18]: 6.72 µM (active)

SMILES: CCCCN1C(=O)/C(=N\Nc2ccccc2C(F)(F)F)c2ccccc21
- IC50 [5]: 49.7 µM (active)
- IC50 [6]: 73.8 µM (active)

SMILES: CCCCN=C(S)NNC(=O)c1nn(C)c(C)c1Cl
- IC50 [5]: > 100 µM (inactive)
